The values that follow come from patent US20080293969A1, “18F-Labeled Daa Analogues and Method of Labeling These Analogues as Positron Emission Tomography (Pet) Tracers For Imaging Peripheral Benzodiazepine Receptors” (GE Healthcare Limited, priority 2005, published 2008).

In one series the target is PBR (Homo sapiens, UniProt P30536). Particulars: reported, Drug Dev. Research, 2001, vol. 52, 475-484; cited from earlier work.
A short description of the next series: Biodistribution in rats. Format: in vivo, male Sprague-Dawley rats. Particulars: 10 MBq/kg tail vein, 15 min post-injection. As to the method: SAN1 at 10 MBq/kg was injected in the tail vein of male Sprague-Dawley rats. Rats were sacrificed 15 min post-injection and blood, cortex, olfactory bulb, adrenal and cerebellum were dissected, weighed and radioactivity in the organs was measured. Uptake in organs was expressed as Standardized Uptake Value, SUV. The scope of this experiment was to assess blood brain penetration of the radiolabeled compound as well as its distribution to organs known to express PBR, e.g. adrenal medulla. […] Additionally, we observed a large uptake of SAN1 in adrenal which is the peripheral organ with the highest density of PBRs. Biodistribution data from 4 rats was summarized and is shown in the diagram below, error bars represent the SEM.

The target of series [1] is T1, peripheral benzodiazepine receptors (PBR) (Sus scrofa, UniProt Q6UN27).
T1 construct: from tissue; host or cells: pig adrenal cryosections (rat heart and rat brain sections were run in the same assay)
T1 sequence (Q6UN27 1-169): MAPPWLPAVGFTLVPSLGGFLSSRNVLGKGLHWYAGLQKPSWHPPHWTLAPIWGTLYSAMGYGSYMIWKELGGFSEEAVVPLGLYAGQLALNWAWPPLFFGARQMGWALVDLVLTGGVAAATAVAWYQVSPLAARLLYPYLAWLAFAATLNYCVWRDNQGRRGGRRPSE
Nature of the series: Frozen section autoradiography. The format is binding, pig. The method, then: (§1) Frozen Section Autoradiography.
(§2) Cryosections of pig adrenal, rat heart and rat brain were incubated with [^18F] labeled N-(2,5-dimethoxybenzyl)-3-fluoro-N-(5-fluoro-2-phenoxy-phenyl)propanamide (SAN1) for 40 min at R.T. in 50 mM Tris-HCl, pH 7.4, in the presence or absence of 1 μM PK11195 (selective PBR ligand). Thereafter, sections were washed in buffer 3×1 min, dried in a heated oven (37° C.) and exposed to phosphor imaging plates for 240 min. Assessment of the selectivity of the radioligand for PBRs was assessed by comparing the regional distribution of radioactivity with known distribution of PBRs in tissue. Another parameter investigated was the blocking effect in sections which were co-incubated with an excess of PK11195.

Series [2] relates to peripheral benzodiazepine receptors (PBR). Nature of the series: Frozen section autoradiography. The format is binding, pig. Particulars: frozen section autoradiography. As to the method: as §1, §2

Molecules are shown by their SMILES.

Chain of PBR (P30536 whole entry, species assumed): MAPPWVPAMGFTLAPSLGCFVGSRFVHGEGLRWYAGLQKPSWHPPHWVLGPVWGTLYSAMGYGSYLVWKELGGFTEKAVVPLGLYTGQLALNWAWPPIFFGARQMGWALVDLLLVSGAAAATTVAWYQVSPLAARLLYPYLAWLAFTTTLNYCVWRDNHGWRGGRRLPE

As for `CC(=O)N(Cc1ccccc1OC(C)C)c1ccc(Cl)cc1Oc1ccccc1` [DAA1097, N-(4-chloro-2-phenoxyphenyl)-N-(2-isopropoxybenzyl)-acetamide], at PBR, the “affinity and selectivity for PBR” value is listed as “high affinity selective ligands”.
As for `COc1ccc(OC)c(CN(C(C)=O)c2cc(F)ccc2Oc2ccccc2)c1` [DAA1106, N-(2,5-dimethoxybenzyl)-N-(5-fluoro-2-phenoxyphenyl)acetamide], the “affinity and selectivity for PBR” value at PBR is on record as “high affinity selective ligands”.
On to `COc1ccc(OC)c(CN(C(=O)CC[18F])c2cc(F)ccc2Oc2ccccc2)c1` [SAN1, [^18F] labeled N-(2,5-dimethoxybenzyl)-3-fluoro-N-(5-fluoro-2-phenoxy-phenyl)propanamide], for which, in “Biodistribution in rats” (all regions analyzed (cortex, olfactory bulb, cerebellum), particularly olfactory bulb), the “brain to blood ratio” value is recorded as “above 1”. For the same compound, the uptake in adrenal entry in the series “Biodistribution in rats” (uptake expressed as SUV) is “large uptake”. Besides, the “blocking of adrenal medulla uptake by an excess of PK11195” value in series [1] (co-incubated with 1 μM PK11195) is recorded as “completely blocked”. In addition, the “uptake in adrenal medulla” value in series [1] (cryosections of pig adrenal, incubated 40 min at R.T., 50 mM Tris-HCl pH 7.4) was “high uptake”. Also, the “binding and specificity for PBR-rich tissues” value in series [2] was “good binding and specificity”.
